Laboratory results reported in patent US20140288040A1, “SUBSTITUTED BENZYLAMINE COMPOUNDS, THEIR USE IN MEDICINE, AND IN PARTICULAR THE TREATMENT OF HEPATITIS C VIRUS (HCV) INFECTION” (ASTEX THERAPEUTICS LIMITED, priority 2011, published 2014).
Where a name gives a salt, the structure may show the parent alone. Read-outs that look alike come from different tables or passages of the source.

Target: T1, HCV NS3 protease (full length NS34a) (Hepatitis C virus genotype 1b, UniProt P26663)
T1 construct: The protease activity of the full length NS34a was measured using a FRET-based assay; made in house
Assay: HCV NS3 protease assay (FRET, full length NS34a)
Assay type: biochemical
Experimental: The HCV NS3 protease functions have been extensively studied and are considered as potential targets for antiviral therapy: see for example the many references listed in the introductory section of this application. Therefore, the activity of the compounds of the invention as anti-HCV agents was assessed using a full length HCV NS3 protease.
The protease activity of the full length NS34a was measured using a FRET-based assay utilizing a peptide substrate derived from the NS4AB cleavage site (Anaspec) and labelled at one end with a quencher (QXL520) and at the other with a fluorophore (5-FAMsp). NS34a (produced in-house by literature methods) was incubated with test compounds and peptide substrate in 50 mM Tris pH8, 20 mM DTT, 1% CHAPS, 10% glycerol and 5% DMSO. The reaction was followed by monitoring the change in fluorescence on a Molecular Devices Gemini plate reader for 30 minutes at room temperature. Initial rates were calculated from the progress curves using SoftMax Pro (Molecular Devices). IC50 values were then calculated from replicate curves using Prism GraphPad software.

[1] = protease activity of full length NS34a, FRET peptide substrate, read-out: Activity IC50
[2] = IC50 values of 10-150 μM against the protease activity of the full length NS34a, or at least 40% inhibition of protease activity at a concentration of 100 μM

T1 sequence (P26663 1658-1711): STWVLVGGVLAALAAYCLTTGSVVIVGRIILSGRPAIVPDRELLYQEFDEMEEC
T1 sequence (P26663 1027-1657): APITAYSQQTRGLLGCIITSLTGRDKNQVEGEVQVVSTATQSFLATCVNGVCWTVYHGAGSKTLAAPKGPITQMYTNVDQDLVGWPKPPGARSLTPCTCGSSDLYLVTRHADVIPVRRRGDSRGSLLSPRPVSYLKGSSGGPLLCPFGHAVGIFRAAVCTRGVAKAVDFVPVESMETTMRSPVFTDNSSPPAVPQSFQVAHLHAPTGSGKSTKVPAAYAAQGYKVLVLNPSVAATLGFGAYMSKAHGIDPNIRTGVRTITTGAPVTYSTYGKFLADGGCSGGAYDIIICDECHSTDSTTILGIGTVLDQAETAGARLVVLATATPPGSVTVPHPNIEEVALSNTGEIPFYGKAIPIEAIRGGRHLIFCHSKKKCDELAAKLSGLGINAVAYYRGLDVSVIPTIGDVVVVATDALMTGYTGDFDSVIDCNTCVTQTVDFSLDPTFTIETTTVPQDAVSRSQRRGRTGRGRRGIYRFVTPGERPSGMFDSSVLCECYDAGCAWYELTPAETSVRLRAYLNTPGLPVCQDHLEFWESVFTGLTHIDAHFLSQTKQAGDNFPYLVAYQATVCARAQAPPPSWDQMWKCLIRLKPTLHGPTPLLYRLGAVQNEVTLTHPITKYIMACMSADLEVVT

| IC50 [1] [µM] | IC50 [2] [µM] | Structure (SMILES) |
| --- | --- | --- |
| 1.6 | – | CC[C@@H](N)c1ccc(Cl)c(Oc2ccc(CNC(C)=O)cc2)c1F [Example 198] |
| 0.63 | – | CC[C@H](N)c1ccc(Cl)c(Oc2cccc(CO)c2)c1F [Example 111, {3-[3-((S)-1-Amino-propyl)-6-chloro-2-fluoro-phenoxy]-phenyl}-methanol.hydrochloride] |
| 0.11 | – | CC[C@@H](N[C@@H](C)CC(=O)NCCO)c1ccc(Cl)c(Oc2ccccc2)c1F [Example 147] |
| 6.3 | – | N[C@H](CCO)c1ccc(Cl)c(Oc2ccccc2)c1F [Example 343] |
| 2.1 | – | CC[C@@H](N)c1ccc(Cl)c(Oc2cccc(CNS(C)(=O)=O)c2)c1F [Example 157] |
| 9.7 | – | CC[C@H](CC(N)=O)N[C@H](CC)c1ccc(Cl)c(Oc2ccccc2)c1F [Example 135] |
| – | 10 to 150 | C[C@H](CC(N)=O)N[C@@H](CC1CCNCC1)c1ccc(F)c(Oc2ccccc2)c1F [Example 99] |
| – | 10 to 150 | CC[C@@H](N)c1ccc(Cl)c(Oc2cccc(C(=O)NCCC#N)c2)c1F [Example 191] |
| – | 10 to 150 | CC[C@@H](N[C@H](C)CC(=O)NOC)c1ccc(Cl)c(Oc2ccccc2)c1F [Example 307] |
| 2.4 | – | CS(=O)(=O)Nc1cccc(Oc2c(F)ccc(CN[C@H]3CC[C@@H](N)CC3)c2F)c1 [Example 285] |
| 1 | – | CC[C@@H](NCCC(N)=O)c1ccc(F)c(Oc2ccccc2)c1F [Example 122] |
| 3.9 | – | C[C@@H](CC(N)=O)NCc1ccc(F)c(Oc2ccccc2)c1F [Example 326] |
| – | 10 to 150 | N[C@@H](CC1CCOCC1)c1ccc(Cl)c(Oc2ccccc2)c1F [Example 276B, (S)-1-(4-Chloro-2-fluoro-3-phenoxy-phenyl)-2-(tetrahydro-pyran-4-yl)-ethylamine.hydrochloride] |
| 1.7 | – | CC[C@@H](N)c1ccc(Cl)c(Oc2ccc(Cl)cc2)c1F [Example 176] |
| 6.4 | – | C[C@H](CC(=O)NCCN)N[C@@H](CC1CCOCC1)c1ccc(Cl)c(Oc2ccccc2)c1F [Example 351] |
| 8.6 | – | CC[C@@H](N)c1ccc(Cl)c(Oc2ccc(S(=O)(=O)NC)cc2)c1F [Example 189] |
| 3 | – | CS(=O)(=O)Nc1cccc(Oc2c(F)ccc(CNc3ccnc(N)c3)c2F)c1 [Example 286] |
| 6.3 | – | NC(C1=CCCCC1)c1ccc(F)c(Oc2ccccc2)c1F (centres unmarked) [Example 40] |
| 6 | – | CCC(NC[C@@H](O)CO)c1ccc(F)c(Oc2ccccc2)c1F (some centres unmarked) [Example 69] |
| 6.6 | – | CCC(NC(CO)CO)c1ccc(F)c(Oc2ccccc2)c1F (centres unmarked) [Example 43] |
| – | 10 to 150 | C[C@H](CC(N)=O)N[C@H](CCO)c1ccc(Cl)c(Oc2ccccc2)c1F [Example 353] |
| 3 | – | CC[C@@H](N)c1ccc(Cl)c(Oc2cccc(F)c2)c1F [Example 149] |
| 1.5 | – | CC[C@@H](N[C@H](C)CC(N)=O)c1ccc(Cl)c(Oc2ccc(C#N)cc2)c1F [Example 185] |

| IC50 [1] [µM] | IC50 [2] [µM] | Structure (SMILES) |
| --- | --- | --- |
| 7.7 | – | CC[C@@H](N)c1ccc(Cl)c(Oc2cccc(NC(=O)NCC(F)(F)F)c2)c1F [Example 171, 1-{3-[3-((R)-1-Amino-propyl)-6-chloro-2-fluoro-phenoxy]-phenyl}-3-(2,2,2-trifluoro-ethyl)-urea.hydrochloride] |
| – | 10 to 150 | N[C@@H](c1ccc(F)c(Oc2ccccc2)c1F)[C@@H]1CCC(=O)NC1 [Example 74B] |
| 1.5 | – | N[C@H](c1ccc(Cl)c(Oc2ccccc2)c1F)C1CCOCC1 [Example 344] |
| – | 10 to 150 | CC[C@@H](N[C@H](C)CC(N)=O)c1ccc(Cl)c(Oc2ccc(N)c(C(F)(F)F)c2)c1F [Example 259] |
| 3.9 | – | C[C@H](CC(=O)NCCN)N[C@H](CC1CCOCC1)c1ccc(Cl)c(Oc2ccccc2)c1F [Example 278] |
| 1.8 | – | Cc1cc(Oc2c(Cl)ccc([C@@H](N)C3CCOCC3)c2F)ccc1[N+](=O)[O-] [Example 345] |
| 2.6 | – | CC[C@@H](N)c1ccc(Cl)c(Oc2ccc([N+](=O)[O-])cc2)c1F [Example 197] |
| – | 10 to 150 | C[C@@H](N)c1ccc(Cl)c(Oc2ccccc2)c1F [Example 341] |
| – | 10 to 150 | CC[C@@H](N[C@H](C)CC(N)=O)c1ccc(Cl)c(Oc2ccc(N)c(OC)c2)c1F [Example 254] |
| – | 10 to 150 | CC[C@@H](N[C@H](C)CC(=O)NCC(N)=O)c1ccc(Cl)c(Oc2ccccc2)c1F [Example 177] |
| – | 10 to 150 | CC[C@@H](N)c1ccc(Cl)c(Oc2ccc(CO)nc2)c1F [Example 231] |
| 0.36 | – | CC[C@H](N[C@@H](C)c1c[nH]cn1)c1ccc(Cl)c(Oc2ccccc2)c1F [Example 129] |
| 1.8 | – | CCCCC(N)c1ccc(F)c(Oc2ccccc2)c1F (centres unmarked) [Example 10] |
| 6.9 | – | CCc1ccc(Oc2c(Cl)ccc([C@H](N)CC)c2F)cc1 [Example 187] |
| – | 10 to 150 | CC[C@@H](N[C@H](C)c1ccc[nH]c1=O)c1ccc(Cl)c(Oc2ccccc2)c1F (single isomer, unassigned) [Example 314] |
| 1.7 | – | C#Cc1ccc(Oc2c(Cl)ccc([C@@H](CC)N[C@H](C)CC(N)=O)c2F)cc1 [Example 229] |
| 6.8 | – | CC[C@@H](N)c1ccc(Cl)c(Oc2cccc(C(F)(F)F)c2)c1F [Example 162] |
| 2.7 | – | CCC(CC)[C@H](N)c1ccc(Cl)c(Oc2ccccc2)c1F [Example 347] |
| – | 10 to 150 | CCC[C@@H](N[C@H](C)CC(N)=O)c1ccc(Cl)c(Oc2ccccc2)c1F [Example 126] |
| 5.7 | – | N[C@H](CCF)c1ccc(Cl)c(Oc2ccccc2)c1F [Example 357, (R)-1-(4-Chloro-2-fluoro-3-phenoxy-phenyl)-3-fluoro-propylamine.hydrochloride] |
| 6.4 | – | N[C@@H](c1ccc(Cl)c(Oc2ccccc2)c1F)C1CCOCC1 [Example 356] |
| 3.7 | – | CC[C@@H](N)c1ccc(Cl)c(Oc2ccc(C)nc2)c1F [Example 180] |
| 3.1 | – | CC[C@@H](N)c1ccc(Cl)c(Oc2ccc(C3(CO)CC3)cc2)c1F [Example 194] |

| IC50 [1] [µM] | IC50 [2] [µM] | Structure (SMILES) |
| --- | --- | --- |
| 1.6 | – | CC[C@@H](N)c1ccc(Cl)c(Oc2ccc(-c3cnco3)c(C)c2)c1F [Example 228] |
| 6.2 | – | CC[C@@H](N)c1ccc(Cl)c(Oc2ccc(N)cn2)c1F [Example 156, 6-[3-((R)-1-Amino-propyl)-6-chloro-2-fluoro-phenoxy]-pyridin-3-ylamine.dihydrochloride] |
| 5.9 | – | CC[C@@H](N)c1ccc(Cl)c(Oc2ccccc2)c1Cl [Example 262] |
| 8.2 | – | CC[C@@H](N)c1ccc(Cl)c(Oc2cc[nH]c(=O)c2)c1F [Example 218, 4-[3-((R)-1-Amino-propyl)-6-chloro-2-fluoro-phenoxy]-1H-pyridin-2-one. hydrochloride] |
| – | 10 to 150 | CC[C@@H](N[C@H](C)CC(=O)NC(C)(C)CO)c1ccc(Cl)c(Oc2ccccc2)c1F [Example 269] |
| 1.6 | – | CC[C@@H](N)c1ccc(Cl)c(Oc2ccc(-c3cnco3)cc2)c1F [Example 203, (R)-1-[4-Chloro-2-fluoro-3-(4-oxazol-5-yl-phenoxy)-phenyl]-propylamine.hydrochloride] |
| – | 10 to 150 | C[C@H](CC(N)=O)NCc1ccc(F)c(Oc2ccccc2)c1F [Example 327] |
| 4.8 | – | CC[C@@H](N)c1ccc(Cl)c(Oc2ccncc2)c1F [Example 169] |
| 3.7 | – | CC[C@@H](N)c1ccc(Cl)c(Oc2ccnc(C)c2)c1F [Example 168] |
| 5.7 | – | CC[C@@H](N)c1ccc(Cl)c(Oc2ccc(N(C)C)cc2)c1F [Example 182] |
| 1 | – | C[C@@H](CC(N)=O)N[C@H](C)c1ccc(Cl)c(Oc2ccccc2)c1F [Example 336] |
| – | 10 to 150 | CC[C@@H](N[C@H](C)CC(=O)NC(C)C)c1ccc(Cl)c(Oc2ccccc2)c1F [Example 304] |
| – | 10 to 150 | CCC(NC(C)c1ccn[nH]1)c1ccc(F)c(Oc2ccccc2)c1F (centres unmarked) [Example 33] |
| 2.7 | – | CC[C@@H](N)c1ccc(Cl)c(Oc2ccc(C(C)O)cc2)c1F (some centres unmarked) [Example 188] |
| 7.1 | – | CCC(NCc1c[nH]c2ccccc12)c1ccc(F)c(Oc2ccccc2)c1F (centres unmarked) [Example 31] |
| – | 10 to 150 | NC(CCO)c1ccc(F)c(Oc2ccccc2)c1F (centres unmarked) [Example 294, 3-Amino-3-(2,4-difluoro-3-phenoxy-phenyl)-propan-1-ol.hydrochloride] |
| – | 10 to 150 | CCC(NC(C)COC)c1ccc(F)c(Oc2ccccc2)c1F (centres unmarked) [Example 51] |
| – | 10 to 150 | CCC(NCc1ccc[nH]1)c1ccc(F)c(Oc2ccccc2)c1F (centres unmarked) [Example 291] |
| – | 10 to 150 | CC[C@@H](N[C@H](C)CC(=O)NC[C@@H](C)O)c1ccc(Cl)c(Oc2ccccc2)c1F [Example 268] |
| – | 10 to 150 | CC[C@@H](N)c1ccc(Cl)c(Oc2ccc(NC(C)=O)nc2)c1F [Example 355] |
| – | 10 to 150 | NCCC(N)c1ccc(F)c(Oc2ccccc2)c1F (centres unmarked) [Example 94] |
| – | 10 to 150 | CC[C@@H](N[C@H](C)CC(=O)NCC(=O)OC)c1ccc(Cl)c(Oc2ccccc2)c1F [Example 308] |
| 3.1 | – | CC[C@@H](N[C@H](C)CC(=O)NCCO)c1ccc(Cl)c(Oc2ccccc2)c1F [Example 146] |

| Structure (SMILES) | IC50 [1] [µM] | IC50 [2] [µM] |
| --- | --- | --- |
| C=CCN[C@@H](CC)c1ccc(F)c(Oc2ccccc2)c1F [Example 102, Allyl-[(S)-1-(2,4-difluoro-3-phenoxy-phenyl)-propyl]-amine.hydrochloride] | – | 10 to 150 |
| CCC(NC(C)CC(=O)NC)c1ccc(F)c(Oc2ccccc2)c1F (centres unmarked) [Example 48] | – | 10 to 150 |
